Measurements from patent US20250040558A1, “ANTIMICROBIAL ACTIVITY OF CHLORITE-ENTRAINED POLYMERS” (CSP Technologies, Inc., priority 2021, published 2025).

Legend:
[1] = test system: S. Newport; assay: Reduction of S. Newport on sliced tomatoes; assay type: cell-based; details: 4° C.
Protocol: The skins of sliced tomatoes were spot inoculated with S. Newport. Sliced tomatoes were sealed in a controlled environment containing ClO2 or a regular plastic seal. The inoculated tomato skins were removed and processed on days 0, 1, 2, 5 and 7, after which S. Newport was evaluated by plating onto XLT-4 agar.
S. Newport was grown in TSB at 37° C. for 18-24 hr. Bacteria was resuspended in E-pure water. Serial dilutions of the inoculum were plated onto XLT-4 plates and incubated at 37° C. for 18-24 hours.
Tomatoes were first prepared by rinsing with 70% ethanol and thoroughly rinsing with sterile e-pure water. Tomatoes were sliced using a sterile tomato slicer (Prince Castle, Inc) and placed in pre-labelled trays. Five tomatoes were sliced per Aptar tray (4×10.3×3.4 inches). The tomatoes were spiked by inoculating two slices of each tomato with 10 μL of S. Newport. Tomatoes were incubated at room temperature for 1 hr. After drying, each tray was heat sealed with a tray sealing instrument (Maxwell Chase Technologies) at a temperature of 390° F. For the experimental group, the film was treated with 0.63 g of chlorine dioxide. Trays were stored at 4° C. until specimen collection. For each treatment of 1 hr, 24 hr, 48 hr, and 5 days, and 7 days a control and a treated tray were evaluated. Tomato skins of spiked slices were collected and tested for the presence of S. Newport. […]

[2] = test system: Microsporidia; assay: Microsporidia spore viability on tomato slices (RK-13 culture, Calcofluor White); assay type: cell-based; details: 4° C.
Protocol: Rabbit kidney (Rk-13) cell lines were maintained in flasks using 3.5% Fetal Bovine Serum (HIFBS) EMEM medium 1× antibiotics and antimycotics. Flasks were incubated at 37° C. and 5% CO2 until preparation of slides. 16-microwell slides were seeded with cells and grown in 10% (HIFBS) EMEM medium for 48 hours before inoculation with spores.
Fresh Microsporidia spores were propagated and harvested using RK-13 tissue cultures. The harvested medium containing cell debris and spores was filtered through a 5 μm filter, centrifuged at 2000 g for 15 minutes and counted using a hemocytometer.
Tomatoes were first prepared by rinsing with 70% ethanol and thoroughly rinsing with sterile e-pure water. Tomatoes were sliced using a sterile tomato slicer (Prince Castle, Inc) and placed in pre-labelled trays. Five tomatoes were sliced per Aptar tray (4×10.3×3.4 inches). The tomatoes were spiked by inoculating two slices of each tomato with 10 microliters of oocysts. Tomatoes were incubated at room temperature for 1 hr. […] For each treatment of 1 hr, 24 hr, 48 hr, and 5 days, and 7 days a control and a treated tray were evaluated. […]
Tomato slices spiked with Microsporidia were suspended in F12 media. […] Spore counts were taken using an epifluorescence microscope at 40× magnification and recorded.

In the case of `[O][Cl+][O-]` [chlorine dioxide], the “inactivation of S. Newport” value ([1]; film with 0.63 g chlorine dioxide) is reported as “effective in inactivation”, the “inactivation of S. Newport” value ([1]; two days of treatment) is reported as “complete inactivation” and the Microsporidia spore viability ([2]; 24 hours of treatment) is reported as “completely inactivated”. The Microsporidia spore viability ([2]; after one hour of treatment) was “effectively reduced spore viability”.
